In patent publication US20260234161A1, “RIFABUTIN ANALOGS FOR THE TREATMENT OF BACTERIAL DISEASES” (BIOVERSYS AG, priority 2023, published 2026):
Converted amounts (≈) assume the structure as drawn.

Columns and labels:
Format in all cases: cell-based
[1] = test system: A. baumannii (HUMC1 strain); test: MIC by broth microdilution, A. baumannii (RPMI + 10% FCS); settings: Acinetobacter baumannii; HUMC1 strain; RPMI medium + 10% FCS; 35° C., 20 hours; read-out: MIC A. baumannii
Description: (§1) MIC values were determined by broth microdilution method according to the CLSI guidelines with the following exceptions: MIC against A. baumannii was performed in RPMI medium supplemented with 10% FCS and MIC against M. abscessus was performed in Middlebrook 7H9 broth supplemented with Middlebrook ADC growth supplement (10%; see column “M. abscessus 7H9”). MIC forM abscessus was determined a second time in standard cation adjusted Mueller Hinton broth without growth supplement (see colum “M. abscessus MH”). All other MIC were performed in standard cation adjusted Mueller Hinton broth, supplemented with Middlebrook ADC growth supplement (5%) for the slow growing mycobacteria (M. xenopi, M. kansasii and M. avium).
(§2) The following procedure applies to all species tested, except forM xenopi. From a fresh culture plate (from overnight to several days depending on the bacteria), cells were resuspended in 0.9% (w/v) saline solution and bacterial inoculum was prepared in the respective testing medium with 5×10^5 CFU/mL. For M. xenopi, the inoculum was prepared from a fresh liquid culture (7H9+ADC). The appropriate volumes of a 10 mg/mL compound solution were directly dispensed in the 96-well assay plate using a digital dispenser to create two-fold dilution series from 32 to 0.002 μg/mL final concentration for A. baumannii and S. aureus; from 16 to 0.016 μg/mL for M. abscessus and M. avium; and from 1 to 6×10^−5 μg/mL for M. kansasii and M. xenopi. 100 μL of bacterial suspension was finally added to the compounds. Plates were covered and incubated without shaking at 35° C. for 20 hours for A. baumanii and S. aureus; at 30° C. for 4 days for M. abscessus; and at 37° C. for 7 days (at least) for M. kansasii (covered with aluminum foil to avoid light exposure), M. avium and M. xenopi. Every experiment contained an antibiotic as quality control. MIC was determined visually as the lowest concentration of a compound that prevents visible growth of the bacteria.
(§3) The in vitro activity of compounds described herein was determined against S. aureus (UAMS-1625 strain), A. baumannii (HUMC1 strain), M. abscessus (ATCC 19977), M. kansasii (ATCC 12478), M. avium (ATCC 25291), and M. xenopi (ATCC 19250).

[2] = test system: S. aureus (UAMS-1625 strain); test: MIC by broth microdilution, S. aureus; settings: Staphylococcus aureus, 20 h, read-out: MIC S. aureus
Description: as §1, §2, §3

[3] = test system: M. abscessus (ATCC 19977); test: MIC by broth microdilution, M. abscessus in cation adjusted Mueller Hinton broth; settings: Mycobacteroides abscessus, ATCC19977, 96 h; ATCC 19977; cation adjusted Mueller Hinton broth without growth supplement; 30° C., 4 days; read-out: MIC M. abscessus MH
Description: as §1, §2, §3

CO[C@H]1/C=C/O[C@@]2(C)Oc3c(C)c(O)c4c(c3C2=O)C2=NC3(CCN(CC(C)C)CC3)NC2=C(NC(=O)/C(C)=C\C=C\[C@H](C)[C@H](O)[C@@H](C)[C@@H](O)[C@@H](C)[C@H](OC(=O)N2CCCC3(CCN(C)CC3)C2)[C@@H]1C)C4=O [Compound 20]
MIC [1]: ≤ 0.016 µg/mL
MIC [2]: 0.06 µg/mL (≈ 0.06 µM)
MIC [3]: 1 µg/mL (≈ 1 µM)

CO[C@H]1/C=C/O[C@@]2(C)Oc3c(C)c(O)c4c(c3C2=O)C2=NC3(CCN(CC(C)C)CC3)NC2=C(NC(=O)/C(C)=C\C=C\[C@H](C)[C@H](O)[C@@H](C)[C@@H](O)[C@@H](C)[C@H](OC(=O)N2CCOC3(CCN(C)CC3)C2)[C@@H]1C)C4=O [Compound 24]
MIC [1]: ≤ 0.016 µg/mL
MIC [2]: 0.06 µg/mL (≈ 0.0599 µM)
MIC [3]: 2 µg/mL (≈ 2 µM)

CO[C@H]1/C=C/O[C@@]2(C)Oc3c(C)c(O)c4c(c3C2=O)C2=NC3(CCN(CC(C)C)CC3)NC2=C(NC(=O)/C(C)=C\C=C\[C@H](C)[C@H](O)[C@@H](C)[C@@H](O)[C@@H](C)[C@H](OC(=O)N2CCN3CCCC3C2)[C@@H]1C)C4=O (stereo partly drawn) [Compound 25]
MIC [1]: ≤ 0.016 µg/mL
MIC [2]: 0.03 µg/mL (≈ 0.0313 µM)
MIC [3]: 2 µg/mL (≈ 2.09 µM)

CO[C@H]1/C=C/O[C@@]2(C)Oc3c(C)c(O)c4c(c3C2=O)C2=NC3(CCN(CC(C)C)CC3)NC2=C(NC(=O)/C(C)=C\C=C\[C@H](C)[C@H](O)[C@@H](C)[C@@H](O)[C@@H](C)[C@H](OC(=O)NC2CCN(CC3CCCCC3)CC2)[C@@H]1C)C4=O [Compound 29]
MIC [1]: ≤ 0.016 µg/mL
MIC [2]: 0.125 µg/mL (≈ 0.122 µM)
MIC [3]: 0.25 µg/mL (≈ 0.243 µM)

CO[C@H]1/C=C/O[C@@]2(C)Oc3c(C)c(O)c4c(c3C2=O)C2=NC3(CCN(CC(C)C)CC3)NC2=C(NC(=O)/C(C)=C\C=C\[C@H](C)[C@H](O)[C@@H](C)[C@@H](O)[C@@H](C)[C@H](OC(=O)N2CC3CC2CN3Cc2ccccc2)[C@@H]1C)C4=O [Compound 32]
MIC [1]: 0.03 µg/mL
MIC [2]: 0.25 µg/mL (≈ 0.245 µM)
MIC [3]: 0.5 µg/mL (≈ 0.491 µM)

CO[C@H]1/C=C/O[C@@]2(C)Oc3c(C)c(O)c4c(c3C2=O)C2=NC3(CCN(CC(C)C)CC3)NC2=C(NC(=O)/C(C)=C\C=C\[C@H](C)[C@H](O)[C@@H](C)[C@@H](O)[C@@H](C)[C@H](OC(=O)N2CCC3(CCN(CC5CCCCC5)C3)C2)[C@@H]1C)C4=O (stereo partly drawn) [Compound 36]
MIC [1]: 0.06 µg/mL
MIC [2]: 0.25 µg/mL (≈ 0.237 µM)
MIC [3]: 0.125 µg/mL (≈ 0.119 µM)

CO[C@H]1/C=C/O[C@@]2(C)Oc3c(C)c(O)c4c(c3C2=O)C2=NC3(CCN(CC(C)C)CC3)NC2=C(NC(=O)/C(C)=C\C=C\[C@H](C)[C@H](O)[C@@H](C)[C@@H](O)[C@@H](C)[C@H](OC(=O)N2CCN(Cc3nccn3C)CC2)[C@@H]1C)C4=O [Compound 37]
MIC [1]: ≤ 0.016 µg/mL
MIC [2]: 0.03 µg/mL (≈ 0.0297 µM)
MIC [3]: 2 µg/mL (≈ 1.98 µM)

CO[C@H]1/C=C/O[C@@]2(C)Oc3c(C)c(O)c4c(c3C2=O)C2=NC3(CCN(CC(C)C)CC3)NC2=C(NC(=O)/C(C)=C\C=C\[C@H](C)[C@H](O)[C@@H](C)[C@@H](O)[C@@H](C)[C@H](OC(=O)N2CCN(Cc3c(C)noc3C)CC2)[C@@H]1C)C4=O [Compound 38]
MIC [1]: ≤ 0.016 µg/mL
MIC [2]: 0.125 µg/mL (≈ 0.122 µM)
MIC [3]: 1 µg/mL (≈ 0.974 µM)

CO[C@H]1/C=C/O[C@@]2(C)Oc3c(C)c(O)c4c(c3C2=O)C2=NC3(CCN(CC(C)C)CC3)NC2=C(NC(=O)/C(C)=C\C=C\[C@H](C)[C@H](O)[C@@H](C)[C@@H](O)[C@@H](C)[C@H](OC(=O)N2CCCN(CC3CCCCC3)CC2)[C@@H]1C)C4=O [Compound 41]
MIC [1]: 0.06 µg/mL
MIC [2]: 1 µg/mL (≈ 0.973 µM)
MIC [3]: 0.125 µg/mL (≈ 0.122 µM)

CO[C@H]1/C=C/O[C@@]2(C)Oc3c(C)c(O)c4c(c3C2=O)C2=NC3(CCN(CC(C)C)CC3)NC2=C(NC(=O)/C(C)=C\C=C\[C@H](C)[C@H](O)[C@@H](C)[C@@H](O)[C@@H](C)[C@H](OC(=O)N2CCN(CCO)CC2)[C@@H]1C)C4=O [Compound 43]
MIC [1]: ≤ 0.016 µg/mL
MIC [2]: 0.06 µg/mL (≈ 0.0624 µM)
MIC [3]: 8 µg/mL (≈ 8.32 µM)

CO[C@H]1/C=C/O[C@@]2(C)Oc3c(C)c(O)c4c(c3C2=O)C2=NC3(CCN(CC(C)C)CC3)NC2=C(NC(=O)/C(C)=C\C=C\[C@H](C)[C@H](O)[C@@H](C)[C@@H](O)[C@@H](C)[C@H](OC(=O)N2CCN(CCOCCO)CC2)[C@@H]1C)C4=O [Compound 44]
MIC [1]: ≤ 0.016 µg/mL
MIC [2]: 0.03 µg/mL (≈ 0.0298 µM)
MIC [3]: 4 µg/mL (≈ 3.98 µM)

CO[C@H]1/C=C/O[C@@]2(C)Oc3c(C)c(O)c4c(c3C2=O)C2=NC3(CCN(CC(C)C)CC3)NC2=C(NC(=O)/C(C)=C\C=C\[C@H](C)[C@H](O)[C@@H](C)[C@@H](O)[C@@H](C)[C@H](OC(=O)N2CCN(CCc3ccccc3)CC2)[C@@H]1C)C4=O [Compound 46]
MIC [1]: 0.25 µg/mL
MIC [2]: 0.25 µg/mL (≈ 0.245 µM)
MIC [3]: 0.5 µg/mL (≈ 0.49 µM)

COCCN1CCN(C(=O)O[C@H]2[C@H](C)[C@H](O)[C@H](C)[C@@H](O)[C@@H](C)/C=C/C=C(/C)C(=O)NC3=C4NC5(CCN(CC(C)C)CC5)N=C4c4c(c(O)c(C)c5c4C(=O)[C@@](C)(O/C=C/[C@H](OC)[C@H]2C)O5)C3=O)CC1 [Compound 48]
MIC [1]: ≤ 0.016 µg/mL
MIC [2]: 0.06 µg/mL (≈ 0.0615 µM)
MIC [3]: 1 µg/mL (≈ 1.03 µM)

CO[C@H]1/C=C/O[C@@]2(C)Oc3c(C)c(O)c4c(c3C2=O)C2=NC3(CCN(CC(C)C)CC3)NC2=C(NC(=O)/C(C)=C\C=C\[C@H](C)[C@H](O)[C@@H](C)[C@@H](O)[C@@H](C)[C@H](OC(=O)N2CCN(CC(C)(C)C)CC2)[C@@H]1C)C4=O [Compound 49]
MIC [1]: 1 µg/mL
MIC [2]: 0.5 µg/mL (≈ 0.506 µM)
MIC [3]: 0.125 µg/mL (≈ 0.127 µM)

CO[C@H]1/C=C/O[C@@]2(C)Oc3c(C)c(O)c4c(c3C2=O)C2=NC3(CCN(CC(C)C)CC3)NC2=C(NC(=O)/C(C)=C\C=C\[C@H](C)[C@H](O)[C@@H](C)[C@@H](O)[C@@H](C)[C@H](OC(=O)N2CCNCC2)[C@@H]1C)C4=O [Compound 51]
MIC [1]: ≤ 0.001 µg/mL
MIC [2]: 0.016 µg/mL (≈ 0.0174 µM)
MIC [3]: 4 µg/mL (≈ 4.36 µM)

CO[C@H]1/C=C/O[C@@]2(C)Oc3c(C)c(O)c4c(c3C2=O)C2=NC3(CCN(CC(C)C)CC3)NC2=C(NC(=O)/C(C)=C\C=C\[C@H](C)[C@H](O)[C@@H](C)[C@@H](O)[C@@H](C)[C@H](OC(=O)N2CCN(CCC(C)C)CC2)[C@@H]1C)C4=O [Compound 52]
MIC [1]: 0.06 µg/mL
MIC [2]: 0.25 µg/mL (≈ 0.253 µM)
MIC [3]: 0.125 µg/mL (≈ 0.127 µM)

CO[C@H]1/C=C/O[C@@]2(C)Oc3c(C)c(O)c4c(c3C2=O)C2=NC3(CCN(CC(C)C)CC3)NC2=C(NC(=O)/C(C)=C\C=C\[C@H](C)[C@H](O)[C@@H](C)[C@@H](O)[C@@H](C)[C@H](OC(=O)N2CCN(CC3CCOCC3)CC2)[C@@H]1C)C4=O [Compound 53]
MIC [1]: 0.004 µg/mL
MIC [2]: 0.125 µg/mL (≈ 0.123 µM)
MIC [3]: 0.125 µg/mL (≈ 0.123 µM)

CO[C@H]1/C=C/O[C@@]2(C)Oc3c(C)c(O)c4c(c3C2=O)C2=NC3(CCN(CC(C)C)CC3)NC2=C(NC(=O)/C(C)=C\C=C\[C@H](C)[C@H](O)[C@@H](C)[C@@H](O)[C@@H](C)[C@H](OC(=O)N2CCN(CC(C)C)CC2)[C@@H]1C)C4=O [Compound 54]
MIC [1]: 0.03 µg/mL
MIC [2]: 0.125 µg/mL (≈ 0.128 µM)
MIC [3]: 0.06 µg/mL (≈ 0.0617 µM)

CO[C@H]1/C=C/O[C@@]2(C)Oc3c(C)c(O)c4c(c3C2=O)C2=NC3(CCN(CC(C)C)CC3)NC2=C(NC(=O)/C(C)=C\C=C\[C@H](C)[C@H](O)[C@@H](C)[C@@H](O)[C@@H](C)[C@H](OC(=O)N2CCN(Cc3ccco3)CC2)[C@@H]1C)C4=O [Compound 55]
MIC [1]: ≤ 0.016 µg/mL
MIC [2]: 0.125 µg/mL (≈ 0.125 µM)
MIC [3]: 2 µg/mL (≈ 2.01 µM)

CO[C@H]1/C=C/O[C@@]2(C)Oc3c(C)c(O)c4c(c3C2=O)C2=NC3(CCN(CC(C)C)CC3)NC2=C(NC(=O)/C(C)=C\C=C\[C@H](C)[C@H](O)[C@@H](C)[C@@H](O)[C@@H](C)[C@H](OC(=O)N2CCN(c3nccs3)CC2)[C@@H]1C)C4=O [Compound 57]
MIC [1]: 0.03 µg/mL
MIC [2]: 0.06 µg/mL (≈ 0.06 µM)
MIC [3]: 0.5 µg/mL (≈ 0.5 µM)

CO[C@H]1/C=C/O[C@@]2(C)Oc3c(C)c(O)c4c(c3C2=O)C2=NC3(CCN(CC(C)C)CC3)NC2=C(NC(=O)/C(C)=C\C=C\[C@H](C)[C@H](O)[C@@H](C)[C@@H](O)[C@@H](C)[C@H](OC(=O)N2C[C@@H]3C[C@H]2CN3CC2CCCCC2)[C@@H]1C)C4=O [Compound 58]
MIC [1]: 0.03 µg/mL
MIC [2]: 0.125 µg/mL (≈ 0.122 µM)
MIC [3]: 0.125 µg/mL (≈ 0.122 µM)
